In patent publication US9045415B2, “Targeting of EWS-FLI1 as anti-tumor therapy” (Georgetown University, priority 2006, dated 2015):
Residues, ends and D or L forms follow the SMILES beside them. *: point of attachment. FITC = O=C1OC2(c3ccc(O)cc3Oc3cc(O)ccc32)c2ccc(NC(=S)*)cc21

Assays:
[1] = system: ESFT cell lines TC32 (ESFT 1) and 5838 (ESFT 2); test: Peptide growth inhibition, ESFT cell lines 1 and 2; format: cell-based; conditions: 10 μM on days 0, 3 and 5; seven days
Source text: (§1) FIGS. 8A-E show E9RP inhibits ESFT cell growth. In FIGS. 8A and 8B, E9RP is the peptide region of RHA (SEQ ID NO:29) fused to the Penetratin peptide (from the Antennapedia homeodomain; SEQ ID NO:34) and contains amino-terminal fluorescein (FITC). […] Neither lipids nor electricity were used for transduction of peptides into cells. Confocal microscopy identified peptide throughout cells with nuclear uptake. Nuclear uptake was confirmed by DAPI staining. […] Cell lines were placed in 96-well plates with either vehicle alone (●), or E9RP (10 μM) on days 0, 3 and 5 (▴). No lipid or other transfection method was utilized. This represents two experiments with similar results. FIG. 8D depicts dose response of ESFT 1 to either wild-type or single amino-acid mutant peptides. (▪) wild-type E9RP, (E9R (SEQ ID NO:29) fused to the Penetratin peptide (SEQ ID NO:34)), (▾)(E9RP (P2A peptide (SEQ ID NO:30) fused to the Penetratin peptide (SEQ ID NO:34)), (▴)E9RP (D5A peptide (SEQ ID NO:31) fused to the Penetratin peptide (SEQ ID NO:34)). Growth normalized to treating cells with the 16 aa Antp sequence alone (SEQ ID NO:34). FIG. 8E is a comparison of wild-type versus mutant peptides in ESFT and NB cells.

RHA binding to EWS-FLI1 [2] = test: Competitive ELISA, RHA binding to EWS-FLI1; conditions: RHA 4 nM, E9RP 0.01-30 μM; read-out: IC50, prevention of RHA binding to EWS-FLI1
Method: (§2) E9RP is the peptide region of RHA (E9R; SEQ ID NO: 29) fused to the Penetratin peptide (from the Antennapedia homeodomain; SEQ ID NO: 34). In FIG. 5A, E9RP was used in a competition experiment for blocking binding of RHA to EWS-FLI1. Wells were coated with 500 ng EWS-FLI1. RHA (4 nM) was added on to wells in the presence of E9RP (0.01-30 μM). In FIG. 5B, wells were coated with 500 ng/well recombinant CBP. RHA (4 nM) was added to wells with E9RP (0.01-30 μM).
(§3) E9RP was evaluated for the ability to block RHA from binding to EWS-FLI1 using both competitive ELISA assay and solution immunoprecipitation assays. In addition, specificity of interaction was evaluated by disrupting EWS-FLI1 binding from RHA without interfering with other RHA binding proteins. Creb-binding protein (CBP, p300) is critical to cellular basal transcription, so it was determined if a peptide that would disrupt EWS-FLI1 binding from RHA could also disrupt CBP binding.

[3] = system: two additional sarcoma cell lines, lacking EWS-FLI1; test: Peptide growth inhibition, additional sarcoma cell lines; format: cell-based; conditions: data not shown
RHA binding to EWS-FLI1 [4] = test: Solution immunoprecipitation of GST-RHA with recombinant EWS-FLI1; set-up: species or system human
Method: E9RP is the peptide region of RHA (E9R; SEQ ID NO: 29) fused to the Penetratin peptide (from the Antennapedia homeodomain; SEQ ID NO: 34). Immunoprecipitation of GST-RHA using recombinant EWS-FLI1 bound to a FLI1 antibody. […] E9RP is the sequence of aa 823-832 of human RHA that were synthesized.
(§4) In FIG. 13A, recombinant EWS-FLI1 was treated with NSC635437 for 30 minutes. GST-RHA (630-1020) was added and the complexes were then precipitated with antibody to EWS-FLI1 and Protein G beads. Resolved complexes showing the immunoprecipitated complex control without compound are in lanes 3 (0.1% DMSO) and 5 (0.01% DMSO). […] ESFT TC32 (◯) and neuroblastoma SK-N-AS (▪) were grown for 72 hours in the continuous presence of NSC635437. Cells were incubated in MTT reagent for 4 hours and the dried precipitate was dissolved isopropanol and the absorbance read at 570 nm. Each cell line was standardized to the growth of the DMSO control.
Protein lysates and immunoprecipitations were performed as previously published (Uren et al (2005)). Recombinant GST-RHA (647-1075) was prepared from crude bacterial extracts without further purification.
Reagents were developed to block RHA binding to EWS-FLI1 since RHA is necessary for optimal EWS-FLI1 activity. The E9R peptide corresponds to amino acids 823 to 832, located in the proximal HA2 region of RHA (FIG. 29A). A cell-free protein interaction assay was developed to test whether E9R peptide inhibits RHA binding to EWS-FLI1. […] It was determined whether disrupted EWS-FLI1/RHA binding inhibited cell growth.

CBP (aa 1680-1890) = CBP (aa 1680-1890) (Homo sapiens, UniProt Q92793); test: Competitive ELISA, RHA binding to CBP; conditions: RHA 4 nM, E9RP 0.01-30 μM
Chain of CBP (aa 1680-1890) (Q92793 1680-1890): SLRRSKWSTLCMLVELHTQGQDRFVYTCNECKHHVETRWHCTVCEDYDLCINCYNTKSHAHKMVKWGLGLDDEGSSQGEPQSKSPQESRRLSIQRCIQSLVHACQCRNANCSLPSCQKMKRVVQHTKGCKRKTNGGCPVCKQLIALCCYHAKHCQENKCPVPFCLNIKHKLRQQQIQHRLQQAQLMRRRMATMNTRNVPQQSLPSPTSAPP
Method: as §2, §3

TC32 cells = test: Monolayer cell growth (MTT or WST), TC32; format: cell-based; conditions: TC32 monolayer, 10 μM
Method: as §4
(§5) FIG. 30 provides data to show E9R peptide prevents EWS-FLI1 binding to RHA with specific detrimental effects upon ESFT growth and transformation. […] Scale bar equals 20 μm. […] Only expression of EGFP-E9R in TC71 reduced anchorage independent growth. […] Scale bar equals 20 μm.
FIG. 33 provides data showing YK-4-279 is potent and specific inhibitor of ESFT. […] Cell number was measured by MTT or WST reduction after seven days in culture. […] FIG. 33D cell lines expressing EWS-FLI1 compared to non-EWS-FLI1 malignant cell lines following 3 days in culture to establish the IC50 using WST assay. […] Graph plots level of fluorescence in treated divided by untreated lysate. […] Scale bar equals 200 μm.

[5] = system: neuroblastoma SKNAS cells; test: Monolayer cell growth, neuroblastoma; format: cell-based; conditions: E9RP 10 μM; seven days
Source text: as §1, §4, §5

EWS-FLI1 = test: SPR displacement assay of E9R from EWS-FLI1; format: binding
Source text: FIG. 31 provides data showing a small molecule binding to EWS-FLI1 and displaces E9R from EWS-FLI1. […] Aromatic functionalization produced YK-4-279 a para-methoxy derivative of NSC635437. […] A FLI1 antibody complexed EWS-FLI1 and precipitated it from the solution.
An aromatic optimization strategy was used to design analogs to improve upon the activity of NSC635437.

[6] = system: SKNAS (neuroblastoma) cells; test: Soft-agar anchorage-independent growth, SKNAS expressing E9R; format: cell-based; conditions: expressed E9R
Source text: as §5

rhabdomyosarcoma cells = test: Soft-agar anchorage-independent growth, rhabdomyosarcoma cells expressing E9R; format: cell-based; conditions: E9R expression
Source text: (§6) Plasmids that express E9R fused to enhanced green fluorescent protein (EGFP) were transfected into either Ewing's Sarcoma (TC71) or rhabdomyosarcoma (RP) cells and placed in soft-agar for anchorage-independent growth. The pGE9R plasmid diffusely expressed E9R while the pGCE9R plasmid contained a nuclear export sequence to prevent expressed peptide from entering the nucleus. The transfected cells were placed in soft agar culture for 2 weeks and stained with MTT. When E9R was diffusely expressed, including the nucleus, ESFT (containing EWS-FLI1) soft-agar colony growth was suppressed.
(§7) Since the Antp peptides added to media would not remain in the cells for 2 weeks during soft-agar colony growth, expression peptides were used to provide continuous exposure to peptide. A pair of expression plasmids with cloning sites downstream of the enhanced green fluorescent protein (EGFP) was obtained; the pG plasmid contained no localizing sequence and was expressed throughout the cells (FIG. 9, left panels). The pGC plasmids contained a nuclear export sequence that blocked peptide transport into the nucleus (FIG. 9, right panels). The E9R DNA sequence was synthesized and the hybridized oligodeoxynucleotides were inserted into the cloning site downstream of either EGFP or EGFP and nuclear export sequence.

TC71 (ESFT) cells = test: Soft-agar anchorage-independent growth, TC71 expressing E9R; format: cell-based
Source text: as §6, §5
as §7, with “The E9R DNA sequence was synthesized and the hybridized oligodeoxynucleotides were inserted into the cloning site downstream of either EGFP or EGFP and nuclear export sequence.” left out

ESFT cells TC71 = test: Xenografts of TC71 cells transfected with E9R expression plasmids; format: in vivo, mice; conditions: pGE9R vs pGE9R-D5A, 26 days
Method: ESFT cells TC71 were transfected with pGE9R (wild-type sequence peptide (SEQ ID NO: 29)) or pGE9R-D5A (control, mutated peptide; D5A (SEQ ID NO: 31)). In FIG. 10A, fluorescent micrographs of transfected cells after 4 days in culture are presented. […] Bar equals 300 microns. In FIG. 10B, each group contains six mice. Mice legs were measured every 2-3 days. Tumors appeared in 2 weeks. The experiment was terminated after 26 days when the largest tumor caused the mouse to limp. Tumor volumes were calculated according to (D×d2/6)×π formula, where large diameter of tumor mass is D and small diameter is d. 2-way ANOVA analysis, followed by Bonferroni correction for multiple variables, the difference in the two growth curves was highly significant, p=0.016.
The ability of the E9R peptide sequence to prevent ESFT tumorigenesis in a pilot murine xenograft experiment was determined. As a control peptide, the same mutation that prevented wild-type RHA from binding to EWS-FLI1 (D827A, noted in the 10-mer peptide as E9R-D5A) was created. ESFT cells were transfected with either pGE9R or pGE9R-D5A by electroporation. A transfection efficiency of greater than 80% using fluorescent microscopy (FIG. 10A) was observed. […] Every two to three days, each animal's thigh was measured in three dimensions, and tumor volumes were calculated. […]

Row | Molecule | cell growth [1] | IC50 (RHA binding to EWS-FLI1 [2]) | cell growth [3] | IC50 (RHA binding to EWS-FLI1 [4]; GST-RHA (630-1020), read-out: IC50 to prevent complex formation) | effect upon the binding of CBP (CBP (aa 1680-1890)) | ESFT cell growth with fluorescein conjugated peptides (TC32 cells) | cell growth [5] | binding of E9R to EWS-FLI1 (EWS-FLI1; 32 μM E9R alone) | binding of E9R to EWS-FLI1 (EWS-FLI1; 64 μM E9R alone) | anchorage-independent growth [6] | soft agar colony growth (rhabdomyosarcoma cells) | concentration giving decreased association to 50% (RHA binding to EWS-FLI1 [4]; GST-RHA (647-1075) and full-length EWS-FLI1) | reduction of TC71 colony formation (TC71 (ESFT) cells; E9R expressed as EGFP fusion throughout the cell) | soft agar colony growth (TC71 (ESFT) cells; E9R expressed throughout cells (pGE9R)) | xenograft growth of cells expressing peptide (ESFT cells TC71)
1 | CC[C@H](C)[C@H](NC(=O)[C@H](CCCCN)NC(=O)[C@@H](NC(=O)[C@H](CCC(N)=O)NC(=O)[C@H](CCCNC(=N)N)NC(=S)Nc1ccc2c(c1)C(=O)OC21c2ccc(O)cc2Oc2cc(O)ccc21)[C@@H](C)CC)C(=O)N[C@@H](Cc1c[nH]c2ccccc12)C(=O)N[C@@H](Cc1ccccc1)C(=O)N[C@@H](CCC(N)=O)C(=O)N[C@@H](CC(N)=O)C(=O)N[C@@H](CCCNC(=N)N)C(=O)N[C@@H](CCCNC(=N)N)C(=O)N[C@@H](CCSC)C(=O)N[C@@H](CCCCN)C(=O)N[C@@H](Cc1c[nH]c2ccccc12)C(=O)N[C@@H](CCCCN)C(=O)N[C@@H](CCCCN)C(=O)N1CCC[C@H]1C(=O)N1CCC[C@H]1C(=O)N1CCC[C@H]1C(=O)N[C@@H](CC(C)C)C(=O)N[C@@H](CC(=O)O)C(=O)N[C@@H](C)C(=O)N[C@H](C(=O)N[C@H](C(=O)N[C@@H](CCC(=O)O)C(=O)N[C@@H](C)C(=O)O)[C@@H](C)CC)C(C)C [E9RP] ({FITC}-RQIKIWFQNRRMKWKKPPPLDAVIEA-OH; C-terminus assumed) | inhibited the growth | ~200 nM | not growth inhibited | ~100 nM | lacking a dose-dependent effect | significantly reduced ESFT cell growth | did not affect the growth | – | – | – | – | – | – | – | –
2 | PPPLDAVIEA [E9R, peptide corresponding to aa 823-832 of human RHA] | – | – | – | – | – | – | – | 13 R.U. | 17 R.U. | not affected | not reduced | 0.1 µM | 95% | suppressed | reduces ESFT xenografts growth
